These results are taken from a flash point compilation (Sun et al. 2020).

Take `CCCC(C)C(C)(C)C` (stereo unspecified) [2,2,3-trimethylhexane]: the flash point was 15 °C.

Turning to `CCC(C)C(C)(C)C` (stereo unspecified) [2,2,3-trimethylpentane], the flash point was -3 °C.

In turn, `CCC(C)(C)CC(C)(C)C` [2,2,4,4-tetramethylhexane] came in with a flash point of 31 °C.

`CCC(C)CC(C)(C)C` (stereo unspecified) [2,2,4-trimethylhexane] showed a flash point of 13 °C.

Take `CC(C)CC(C)(C)C` [2,2,4-trimethylpentane]: the flash point is -7 °C.

`CC(C)(C)CCC(C)(C)C` [2,2,5,5-tetramethylhexane] returned a flash point of 16 °C.

With `CCCCC(C)(C)C` [2,2-dimethylhexane], the flash point was -3 °C.

As to `CCCCCCC(C)(C)C` [2,2-dimethyloctane], the flash point amounted to 31 °C.

As for `CCCC(C)(C)C` [2,2-dimethylpentane], the flash point is -23 °C.

As to `CC(C)(C)C#N` [2,2-dimethylpropanenitrile], the flash point stood at 4 °C.

`CCC(C)C(C)(C)C(C)C` (stereo unspecified) [2,3,3,4-tetramethylhexane] returned a flash point of 31 °C.

Regarding `CC(C)C(C)(C)C(C)C` [2,3,3,4-tetramethylpentane], the flash point amounted to 11 °C.

For the compound `CCC(C)(C)C(C)C` [2,3,3-trimethylpentane], the flash point worked out at 5 °C.

Consider `CCC(C)(C)C(C)C(C)C` (stereo unspecified) [2,3,4,4-tetramethylhexane], for which the flash point was determined as 31 °C.

`CCC(C)C(C)C(C)C` (stereo unspecified) [2,3,4-trimethylhexane] gave a flash point of 15 °C.

`C=C(C)C(=C)C` [2,3-dimethyl-1,3-butadiene] gave a flash point of -22 °C.

`CC(C)=C(C)C` [2,3-dimethyl-2-butene]: the flash point was -20 °C.

For `CCCCC(C)C(C)C` (stereo unspecified) [2,3-dimethylheptane], the flash point turned out to be 15 °C.

Compound `CCC(C)C(C)C` (stereo unspecified) [2,3-dimethylpentane] showed a flash point of -15 °C.

In the case of `C=C(C)CC(C)(C)C` [2,4,4-trimethyl-1-pentene], the flash point is -4 °C.

In turn, `CC(C)=CC(C)(C)C` [2,4,4-trimethyl-2-pentene] had a flash point of -1 °C.

As to `CC1CC(C)(C)CC1=O` (stereo unspecified) [2,4,4-trimethylcyclopentanone], the flash point amounted to 43 °C.

Regarding `CC(C)CC(C)C` [2,4-dimethylpentane], the flash point is -12 °C.

For `COC1C=CC(OC)O1` (stereo unspecified) [2,5-dimethoxy-2,5-dihydrofuran], the flash point is 47 °C.

In the case of `CC(C)CCC(C)C` [2,5-dimethylhexane], the flash point was -2 °C.

Regarding `C1=CC2C=CC1C2` [2,5-norbornadiene], the flash point was -11 °C.

In turn, `CC(C)c1cccc(C(C)C)c1N` [2,6-diisopropylaniline] yielded a flash point of 123 °C.

As to `CCC(C)CCCC(C)C` (stereo unspecified) [2,6-dimethyloctane], the flash point was determined as 34 °C.

Compound `CC(C)(N)CO` [2-amino-2-methyl-1-propanol] returned a flash point of 68 °C.

For the compound `COC(CBr)OC` [2-bromo-1,1-dimethoxyethane], the flash point was determined as 51 °C.

`CCCCC(C)Br` (stereo unspecified) [2-bromohexane] yielded a flash point of 40 °C.

Turning to `CCCC(C)Br` (stereo unspecified) [2-bromopentane], the flash point is 21 °C.

Regarding `Cc1ccccc1Br` [2-bromotoluene], the flash point worked out at 78 °C.

For `CCC(C)O` (stereo unspecified) [2-butanol], the flash point was determined as 24 °C.

As to `CCC(C)=O` [2-butanone], the flash point is -7 °C.

Compound `CC=CC#N` [2-butenenitrile] gave a flash point of 17 °C.

With `CCCCC1CCCC1=O` (stereo unspecified) [2-butylcyclopentanone], the flash point was determined as 68 °C.

With `C=CC(=C)Cl` [2-chloro-1,3-butadiene], the flash point was -20 °C.

The compound `CC(C)(C)Cl` [2-chloro-2-methylpropane] came in with a flash point of -23 °C.

The compound `CCCC(C)Cl` (stereo unspecified) [2-chloropentane] had a flash point of 1 °C.

Take `Oc1ccccc1Cl` [2-chlorophenol]: the flash point was found to be 72 °C.

Consider `CC(C)Cl` [2-chloropropane], for which the flash point is -32 °C.

The compound `Clc1ccccn1` [2-chloropyridine] came in with a flash point of 64 °C.

`Cc1ccccc1Cl` [2-chlorotoluene] returned a flash point of 47 °C.

On to `O=C1CCCC1C1CCCC1` (stereo unspecified) [2-cyclopentylcyclopentanone], for which the flash point was 90 °C.

Compound `CCCCCCCCC(C)=O` [2-decanone] showed a flash point of 85 °C.

`CC#CCCCCCCC` [2-decyne]: the flash point is 53 °C.

For the compound `CN(C)CCO` [2-dimethylaminoethanol], the flash point was found to be 41 °C.

The compound `CCCCCCCCCCC(C)O` (stereo unspecified) [2-dodecanol] registered a flash point of 113 °C.

The compound `CCOCCO` [2-ethoxyethanol] displayed a flash point of 42 °C.

`CCC(CC)CO` [2-ethyl-1-butanol]: the flash point came out at 57 °C.

For the compound `CCCCC(CC)CO` (stereo unspecified) [2-ethyl-1-hexanol], the flash point came to 74 °C.

`CCc1cccc(C)c1N` [2-ethyl-6-methylaniline] displayed a flash point of 102 °C.

In turn, `CCC(CC)C(=O)O` [2-ethylbutanoicacid] showed a flash point of 87 °C.

Regarding `CCC1CCCCC1=O` (stereo unspecified) [2-ethylcyclohexanone], the flash point is 59 °C.

`CCc1ccccc1O` [2-ethylphenol] returned a flash point of 85 °C.

In the case of `Cc1ccccc1F` [2-fluorotoluene], the flash point came to 12 °C.

`CCCCCC(C)O` (stereo unspecified) [2-heptanol] gave a flash point of 59 °C.

For the compound `CCC(C)I` (stereo unspecified) [2-iodobutane], the flash point amounted to 24 °C.

In turn, `Cc1ccccc1I` [2-iodotoluene] showed a flash point of 90 °C.

Turning to `CC(C)c1ccccc1N` [2-isopropylaniline], the flash point came to 95 °C.

`CC(C)C1CCCCC1=O` (stereo unspecified) [2-isopropylcyclohexanone] returned a flash point of 65 °C.

In turn, `CC(C)c1ccccc1O` [2-isopropylphenol] had a flash point of 89 °C.

`COC1CCCCC1=O` (stereo unspecified) [2-methoxycyclohexanone] yielded a flash point of 69 °C.

Compound `CC1OCCO1` [2-methyl-1,3-dioxolane] gave a flash point of -2 °C.

As for `C=C(C)CCCCC` [2-methyl-1-heptene], the flash point was 10 °C.

As for `C=C(C)CCCC` [2-methyl-1-hexene], the flash point was -8 °C.

For the compound `CCCC(C)CO` (stereo unspecified) [2-methyl-1-pentanol], the flash point is 51 °C.

As to `C=C(C)CO` [2-methyl-2-propen-1-ol], the flash point turned out to be 33 °C.

The compound `C=C(C)C=O` [2-methyl-2-propenal] came in with a flash point of -15 °C.

In the case of `CCC(=O)C(C)C` [2-methyl-3-pentanone], the flash point worked out at 16 °C.

Consider `COc1ccccc1C` [2-methylanisole], for which the flash point turned out to be 51 °C.

On to `CCC(C)C` [2-methylbutane], for which the flash point was -51 °C.

As to `CC1CCCCC1=O` (stereo unspecified) [2-methylcyclohexanone], the flash point came to 46 °C.

The compound `CC1CCCCCCC1=O` (stereo unspecified) [2-methylcyclooctanone] showed a flash point of 71 °C.

With `CC1CCCC1=O` (stereo unspecified) [2-methylcyclopentanone], the flash point turned out to be 26 °C.

In turn, `Cc1ccco1` [2-methylfuran] came in with a flash point of -26 °C.

Regarding `CCCCCC(C)C` [2-methylheptane], the flash point worked out at 4 °C.

Turning to `CCCCCCCC(C)C` [2-methylnonane], the flash point is 38 °C.

Consider `CCCC(C)C` [2-methylpentane], for which the flash point is -32 °C.

Turning to `CCCC(C)C(=O)O` (stereo unspecified) [2-methylpentanoicacid], the flash point was found to be 91 °C.

`CC(C)C=O` [2-methylpropanal]: the flash point is -19 °C.

On to `CC(C)C(=O)O` [2-methylpropanoicacid], for which the flash point was 59 °C.

Compound `CC1CCCO1` (stereo unspecified) [2-methyltetrahydrofuran] registered a flash point of -12 °C.

`Cc1cccs1` [2-methylthiophene] came in with a flash point of 8 °C.

As to `CCCC(C)[N+](=O)[O-]` (stereo unspecified) [2-nitropentane], the flash point came out at 46 °C.

`CCCCCCCC(C)O` (stereo unspecified) [2-nonanol] showed a flash point of 82 °C.

In the case of `CC#CCCCCCC` [2-nonyne], the flash point was 39 °C.

As for `C1=CC2CCC1C2` [2-norbornene], the flash point is -14 °C.

`CCCCCCC(C)=O` [2-octanone] registered a flash point of 56 °C.

`CCCC(C)S` (stereo unspecified) [2-pentanethiol] came in with a flash point of 15 °C.

The compound `CCCC(C)O` (stereo unspecified) [2-pentanol] yielded a flash point of 34 °C.

Take `CC#CCC` [2-pentyne]: the flash point was -30 °C.

Regarding `OCCc1ccccc1` [2-phenylethanol], the flash point came to 102 °C.

Turning to `CC(=O)OCCc1ccccc1` [2-phenylethylacetate], the flash point stood at 102 °C.

Take `CCC(=O)OCCc1ccccc1` [2-phenylethylpropionate]: the flash point was 113 °C.

In turn, `Cc1ccccn1` [2-picoline] registered a flash point of 26 °C.

In turn, `CCCc1ccccc1N` [2-propylaniline] had a flash point of 97 °C.

Turning to `CCCc1cccs1` [2-propylthiophene], the flash point turned out to be 32 °C.

`C#CCO` [2-propyn-1-ol] came in with a flash point of 36 °C.

`CCC(C)c1ccccc1N` (stereo unspecified) [2-sec-butylaniline] showed a flash point of 102 °C.

`CC(C)(C)C1CCCCC1=O` (stereo unspecified) [2-tert-butylcyclohexanone] yielded a flash point of 72 °C.

Regarding `CC(C)(C)c1ccco1` [2-tert-butylfuran], the flash point was determined as 7 °C.

Compound `CC(C)(C)c1ccccc1O` [2-tert-butylphenol] yielded a flash point of 102 °C.

For `CCCCCCCCCC(C)O` (stereo unspecified) [2-undecanol], the flash point was 107 °C.

Take `CCC(C)C(C)(C)CC` (stereo unspecified) [3,3,4-trimethylhexane]: the flash point is 15 °C.
